Results as given in US7671085B2, “Non-steroidal farnesoid X receptor modulators and methods for the use thereof” (The Salk Institute for Biological Studies, priority 2002, dated 2010).
Values belong to the compound of their own block, whether it stands above or below them.

Experiments:
[1] = system: IBABP mRNA in HT29-FXRFL cells; assay: Northern blot of IBABP mRNA in HT29 stable cell lines; assay type: cell-based, Human; conditions: for concentration for maximal induction of IBABP mRNA: overnight treatment
Procedure: (§1) HepG2 or HT29-derived cell lines were typically cultured in medium containing superstripped FBS for 24 hr before the addition of a ligand or DMSO (vehicle) for an additional 24-48 hr. Total RNA was isolated using TRIzol reagent and was resolved (10 μg/lane) on a 1% agarose, 2.2 M formaldehyde gel, transferred to a nylon membrane (Hybond N^+; Amersham Biosciences, Inc.), and cross-linked to the membrane with UV light.
(§2) cDNA probes were radiolabeled with [α-^32P]dCTP using the highprime labeling kit (Amersham Biosciences, Inc.). Membranes were hybridized using the QuikHyb hybridization solution (Stratagene, La Jolla, Calif.) according to the manufacturer's protocol. Blots were normalized for variations of RNA loading by hybridization to a control probe, either, 18 S ribosomal cDNA, or the ribosomal protein 36B4. The RNA levels were quantitated using a PhosphorImager (ImageQuant software; Molecular Dynamics, Inc., Sunnyvale, Calif.) in addition to being exposed to X-ray film.
Human colon cells HT29 (FXR null until differentiated) were infected with retroviral vectors that expressed either FXR constructs and the puromycin-resistant gene or the puromycin-resistant gene alone. Puromycin resistant cells were isolated and pooled cell populations were propagated that harbored either the vector alone (HT29-BABE), overexpressed FXR full length (HT29-FXRFL), a non-functional FXR truncated at the AF2 region (HT29-FXR-AF2), or a constitutively active FXR that has the VP16 activation domain fused N-terminal of the protein (HT29-VP16-FXR). Confirmation of the successful establishment of the different stable cell lines was established via northern blot analysis of FXR message levels in the cells.
These observations verify the usefulness of this colon cell model system for studying the induction of FXR target genes.
The ability of the novel compounds identified herein to induce IBABP gene expression in this cell system was also examined. Total RNA from HT29 stable cells treated overnight with fexaramine, fexarine and fexarene was probed for IBABP gene expression.

[2] = system: FXR (IBABP, PLTP and MRP-2 promoters); assay: transient transfection cell-based assay with natural promoters of FXR targets (IBABP, PLTP, MRP-2)
Description: For this study, the following gene promoters were used: intestinal bile acid binding protein (IBABP; see, for example, Grober et al. (1999). Identification of a bile acid-responsive element in the human ileal bile acid-binding protein gene. Involvement of the farnesoid X receptor/9-cis-retinoic acid receptor heterodimer. J Biol Chem. 274(42), 29749-54), phospholipid transfer protein (PLTP) (Urizar et al (2000). The farnesoid X-activated receptor mediates bile acid activation of phospholipid transfer protein gene expression. J Biol Chem. 275(50), 39313-7) and multidrug resistance related protein 2 (MRP-2) (Kast et al. (2002), supra), which are all well characterized targets of FXR. The natural promoters of both the IBABP and PLTP genes contain one copy of an inverted repeat with a one base spacing (IR-1) while MRP-2 contains an ER-8 element. […] The most robust activation (28-fold) was seen on the IBABP promoter. Less robust (2-3 fold) but specific activation was observed on the PLTP and MRP-2 promoters.

[3] = system: FXR target genes SHP, MRP-2, BSEP and PLTP; assay: Northern blot of FXR target genes in HEPG2-FXR cells; assay type: cell-based; conditions: SHP, MRP-2, BSEP, PLTP
Procedure: as §1, §2
Total RNA was isolated and the expression of the FXR target genes SHP, MRP-2, BSEP and PLTP was measured by Northern blot analysis. […]

mouse FXR and human RXR = target: T1, mouse FXR and human RXR (Mus musculus, UniProt Q60641); assay: CV-1 transient transfection reporter gene assay, TK minimal promoter with ECRE or ER-8 FXRE; assay type: cell-based; conditions: CV-1 cells
T1 construct: expressed in transfected cells; host or cells: CV-1 cells
T1 sequence (Q60641 1-488): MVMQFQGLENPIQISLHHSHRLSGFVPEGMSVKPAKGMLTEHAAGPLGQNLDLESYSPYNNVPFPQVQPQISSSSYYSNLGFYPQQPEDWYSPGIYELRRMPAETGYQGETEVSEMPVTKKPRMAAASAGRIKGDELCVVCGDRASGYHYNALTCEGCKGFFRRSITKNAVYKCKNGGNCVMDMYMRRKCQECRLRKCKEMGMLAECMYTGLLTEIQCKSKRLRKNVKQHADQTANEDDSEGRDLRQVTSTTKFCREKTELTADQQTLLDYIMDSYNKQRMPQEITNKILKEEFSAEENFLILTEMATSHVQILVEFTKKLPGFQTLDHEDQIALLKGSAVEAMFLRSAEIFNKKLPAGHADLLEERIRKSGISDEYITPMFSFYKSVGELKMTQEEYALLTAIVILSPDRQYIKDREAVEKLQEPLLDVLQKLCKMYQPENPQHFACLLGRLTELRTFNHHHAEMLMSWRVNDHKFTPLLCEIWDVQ
T1 sequence (P19793 1-462 partner): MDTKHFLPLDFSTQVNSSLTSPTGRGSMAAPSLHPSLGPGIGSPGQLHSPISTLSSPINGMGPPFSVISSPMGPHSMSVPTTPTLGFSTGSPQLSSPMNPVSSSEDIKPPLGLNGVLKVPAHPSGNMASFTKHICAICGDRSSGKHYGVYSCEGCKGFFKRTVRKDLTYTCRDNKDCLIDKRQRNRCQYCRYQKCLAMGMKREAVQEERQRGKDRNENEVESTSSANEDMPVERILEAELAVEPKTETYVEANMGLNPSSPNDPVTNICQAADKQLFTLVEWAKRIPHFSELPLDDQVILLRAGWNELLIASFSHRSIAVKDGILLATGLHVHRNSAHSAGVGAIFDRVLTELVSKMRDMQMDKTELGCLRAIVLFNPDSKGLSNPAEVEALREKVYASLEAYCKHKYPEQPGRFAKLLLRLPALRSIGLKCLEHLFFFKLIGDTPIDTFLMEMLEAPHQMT
Procedure: The ability of these compounds to activate the receptor in a number of different cell-based reporter gene assays was then determined. […] CV-1 cells were transiently transfected with an expression plasmid for mouse FXR and human RXR with a thymidine kinase (TK) minimal promoter reporter vector containing either no copies or six copies of the ecdysone response element (ECRE), a well-characterized FXR response element (FXRE). In addition, two copies of the recently identified FXRE everted repeat separated by 8 nucleotides (ER-8) was also studied (see, for example, Laffitte et al. (2000). Identification of the DNA binding specificity and potential target genes for the farnesoid X-activated receptor. J Biol Chem. 275(14), 10638-47; Kast et al. (2002). Regulation of multidrug resistance-associated protein 2 (ABCC2) by the nuclear receptors pregnane X receptor, farnesoid X-activated receptor, and constitutive androstane receptor. J Biol Chem. 277(4), 2908-15).

SXR = target: T2, SXR (Homo sapiens, UniProt O75469); assay: nuclear receptor panel: SXR activation; assay type: cell-based
T2 sequence (O75469 1-434): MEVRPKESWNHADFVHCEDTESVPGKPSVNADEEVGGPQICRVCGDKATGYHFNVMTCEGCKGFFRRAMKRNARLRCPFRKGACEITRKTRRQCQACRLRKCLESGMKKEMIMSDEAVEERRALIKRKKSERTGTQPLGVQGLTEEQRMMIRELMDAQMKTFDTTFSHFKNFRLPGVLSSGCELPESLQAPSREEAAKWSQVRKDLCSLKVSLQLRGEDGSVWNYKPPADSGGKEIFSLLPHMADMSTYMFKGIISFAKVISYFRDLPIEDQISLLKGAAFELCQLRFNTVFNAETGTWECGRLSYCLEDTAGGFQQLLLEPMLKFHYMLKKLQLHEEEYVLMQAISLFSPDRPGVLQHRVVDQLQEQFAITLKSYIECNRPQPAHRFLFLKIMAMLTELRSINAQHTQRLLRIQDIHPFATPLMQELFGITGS

FXR = target: T3, FXR (Homo sapiens, UniProt Q96RI1); assay: cell-based FXR transcription assay, FXR responsive promoter linked to luciferase reporter; conditions: for RE^a: footnote a not given
T3 construct: using a full length FXR on a natural response element; expressed in transfected cells
T3 sequence (Q96RI1 1-486): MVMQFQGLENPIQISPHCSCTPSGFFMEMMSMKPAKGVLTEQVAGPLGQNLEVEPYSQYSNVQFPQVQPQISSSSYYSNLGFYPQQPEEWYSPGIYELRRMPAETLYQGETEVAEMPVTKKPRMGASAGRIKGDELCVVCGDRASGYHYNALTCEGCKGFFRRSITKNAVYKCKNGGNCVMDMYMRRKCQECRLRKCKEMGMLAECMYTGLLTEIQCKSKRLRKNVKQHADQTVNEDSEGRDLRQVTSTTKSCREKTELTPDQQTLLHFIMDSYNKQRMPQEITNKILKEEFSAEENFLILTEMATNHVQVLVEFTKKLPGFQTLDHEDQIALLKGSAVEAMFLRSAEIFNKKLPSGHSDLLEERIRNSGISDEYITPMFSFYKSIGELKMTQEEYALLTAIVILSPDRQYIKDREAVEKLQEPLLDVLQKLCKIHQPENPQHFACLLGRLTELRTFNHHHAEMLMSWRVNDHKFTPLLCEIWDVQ
Summary of the method: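 Cells co-transfected with full-length FXR and a luciferase reporter driven by a natural response element on a minimal promoter. Compound exposure ≈10 μM for 18 h before washing and luciferase read-out, in 384-well format, with CDCA as reference activator. EC50 derived from transcriptional activity.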

[4] = HT29-BABE or HT29-FXR-AF2 cell lines
[5] = HT29-VP16-FXR cells (constitutive expression)

concentration at which maximal activity is achieved (mouse FXR and human RXR; ECRE and ER-8 reporters): 1 µM
activity on the minimal TK promoter (mouse FXR and human RXR; no FXRE copies): less than 2 fold
activation of ECRE FXRE reporter (mouse FXR and human RXR; six copies of ECRE, TK minimal promoter): 100 fold
activation of ER-8 FXRE reporter (mouse FXR and human RXR; two copies of ER-8, TK minimal promoter): 4 fold
SMILES: CC(C)c1onc(-c2c(Cl)cccc2Cl)c1COc1ccc(/C=C/c2cccc(C(=O)O)c2)c(Cl)c1 [GW4064, reference compound]
concentration of maximum efficacy [2]: 1 µM
induction of FXR target genes, in words [3]: slightly better induction of the FXR target genes PLTP and SHP
induction of IBABP mRNA, in words [1, 4]: No induction of IBABP mRNA levels
induction of IBABP mRNA, in words ([1]; HT29-FXRFL cells): robust concentration dependent induction of IBABP mRNA
concentration for maximal induction of IBABP mRNA ([1]; HT29-FXRFL cells): 1 µM
induction of IBABP mRNA, in words [1, 5]: super-induced

RE^a (FXR; cell-based FXR reporter assay): 0.84
SMILES: COC(=O)/C=C/c1cccc(N(Cc2ccc(-c3cccc(OC(F)(F)F)c3)cc2)C(=O)C2CCCCC2)c1 [Compound 253]

Further lines, the compound ahead of its results:

SMILES: C[C@H](CCC(=O)O)[C@H]1CC[C@H]2[C@@H]3[C@H](O)C[C@@H]4C[C@H](O)CC[C@]4(C)[C@H]3CC[C@]12C [CDCA, chenodeoxycholic acid, reference compound]
induction of IBABP mRNA, in words [1, 4]: No induction of IBABP mRNA levels
induction of IBABP mRNA, in words ([1]; HT29-FXRFL cells): robust concentration dependent induction of IBABP mRNA
concentration for maximal induction of IBABP mRNA ([1]; HT29-FXRFL cells): 100 µM
induction of IBABP mRNA, in words [1, 5]: super-induced

SMILES: COC(=O)/C=C/c1cccc(N(Cc2ccc3c(c2OC)OC(C)(C)C2C3C2(Cl)Cl)C(=O)C2CCCCC2)c1 (stereo not drawn) [Compound 149]
SXR activation, in words (SXR): potently activated SXR
RE^a (FXR; cell-based FXR reporter assay): 0.50

SMILES: COC(=O)/C=C/c1cccc(N(Cc2ccc(-c3cc(Cl)cc(Cl)c3)cc2)C(=O)C(C)C)c1 [Compound 221]
EC50 (FXR; cell-based FXR reporter assay, determined with Prism 3.0): 661 nM
RE^a (FXR; cell-based FXR reporter assay): 0.54

SMILES: COC(=O)/C=C/c1cccc(N(Cc2ccc(-c3ccc(F)c(Cl)c3)cc2)C(=O)NC(C)C)c1 [Compound 249]
RE^a (FXR; cell-based FXR reporter assay): 0.41

SMILES: COc1c(CN(C(=O)C2CC2)c2ccccc2)ccc2c1OC(C)(C)C=C2 [Compound 26]
FXR activation, in words (FXR; cell-based reporter assay, SAR discussion): among the most active at this stage
